Experiments:
[1] = system: SARS-CoV-2; experiment: SARS-CoV-2 replication on Calu-3 cells; type: cell-based; conditions: non-cytotoxic concentrations
[2] = system: SARS-CoV-2 D614G; experiment: SARS-CoV-2 antiviral activity in a human nasal epithelial model; type: cell-based; conditions: HNE model
[3] = system: wildtype SARS-CoV-2 virus (D614G variant); design: species or system golden Syrian hamsters; conditions: hamster, in vivo

OC[C@H]1O[C@@H]2O[C@H]3[C@H](O)[C@@H](O)[C@@H](O[C@H]4[C@H](O)[C@@H](O)[C@@H](O[C@H]5[C@H](O)[C@@H](O)[C@@H](O[C@H]6[C@H](O)[C@@H](O)[C@@H](O[C@H]7[C@H](O)[C@@H](O)[C@@H](O[C@H]8[C@H](O)[C@@H](O)[C@@H](O[C@H]1[C@H](O)[C@H]2O)O[C@@H]8CO)O[C@@H]7CO)O[C@@H]6CO)O[C@@H]5CO)O[C@@H]4CO)O[C@@H]3CO [β-CD, ß-Cyclodextrin]
Inhibition of SARS-CoV-2 viral activity (in words) ([1]; D614G variant): inhibited the SARS-CoV-2 viral activity
Inhibition of SARS-CoV-2 viral activity (in words) ([1]; Omicron BA.1 variant): inhibited the SARS-CoV-2 viral activity

Methyl-β-cyclodextrin [MβCD]
Reduction of viral replication ([2]; 2.5 mM constantly in the basal side): 11%
Reduction of viral replication ([2]; 2.5 mM on the apical side (initial addition), 48 h pi): 74%
Prophylactic effect (in words) [3]: less potent prophylactic effect

CCC(CC)COC(=O)[C@H](C)N[P@](=O)(OC[C@H]1O[C@@](C#N)(c2ccc3c(N)ncnn23)[C@H](O)[C@@H]1O)Oc1ccccc1 [Remdesivir]
Effect on viral replication (in words) ([2]; drug in the basal medium): completely blocked it

Reference: PMC10247892 (Biomedicine & Pharmacotherapy, 2023)
